Laboratory results as given in patent US11707503B2, “Modulators of complement activity” (Ra Pharmaceuticals, Inc., priority 2015, dated 2023).
Starred links: 1 amine or outer side, 2 acyl side, 3 side chain; linkers in the order of their positions; H or OH if unused. Positions of bridges follow the written chain, without caps; N, C: chain ends. Non-standard residues stand in square brackets, D forms with d. Residues, ends and D or L forms follow the SMILES beside them. Ala(1H-tetrazol-5-yl) = N[C@@H](Cc1nnn[nH]1)C(=O)O; Trp(7-aza) = N[C@@H](Cc1c[nH]c2ncccc12)C(=O)O; hPhe(3-Cl) = N[C@@H](CCc1cccc(Cl)c1)C(=O)O; 2Nal = N[C@@H](Cc1ccc2ccccc2c1)C(=O)O; mXylylene = c1cc(C[*:1])cc(C[*:2])c1; Chg = N[C@H](C(=O)O)C1CCCCC1; Tle = CC(C)(C)[C@H](N)C(=O)O; Ac5c = NC1(C(=O)O)CCCC1; Nva = CCC[C@H](N)C(=O)O; Thp = NC1(C(=O)O)CCOCC1

Biological target: C5 (Homo sapiens, UniProt P01031)
Experiment: Alternative human hemolysis assay using C5 depleted sera and purified human C5
Type: cell-based
Parameters: purchased Complement Technology, Tyler, Tex
Conditions: 0.5 nM purified human C5

Chain of C5 (P01031 678-1676 limits assumed): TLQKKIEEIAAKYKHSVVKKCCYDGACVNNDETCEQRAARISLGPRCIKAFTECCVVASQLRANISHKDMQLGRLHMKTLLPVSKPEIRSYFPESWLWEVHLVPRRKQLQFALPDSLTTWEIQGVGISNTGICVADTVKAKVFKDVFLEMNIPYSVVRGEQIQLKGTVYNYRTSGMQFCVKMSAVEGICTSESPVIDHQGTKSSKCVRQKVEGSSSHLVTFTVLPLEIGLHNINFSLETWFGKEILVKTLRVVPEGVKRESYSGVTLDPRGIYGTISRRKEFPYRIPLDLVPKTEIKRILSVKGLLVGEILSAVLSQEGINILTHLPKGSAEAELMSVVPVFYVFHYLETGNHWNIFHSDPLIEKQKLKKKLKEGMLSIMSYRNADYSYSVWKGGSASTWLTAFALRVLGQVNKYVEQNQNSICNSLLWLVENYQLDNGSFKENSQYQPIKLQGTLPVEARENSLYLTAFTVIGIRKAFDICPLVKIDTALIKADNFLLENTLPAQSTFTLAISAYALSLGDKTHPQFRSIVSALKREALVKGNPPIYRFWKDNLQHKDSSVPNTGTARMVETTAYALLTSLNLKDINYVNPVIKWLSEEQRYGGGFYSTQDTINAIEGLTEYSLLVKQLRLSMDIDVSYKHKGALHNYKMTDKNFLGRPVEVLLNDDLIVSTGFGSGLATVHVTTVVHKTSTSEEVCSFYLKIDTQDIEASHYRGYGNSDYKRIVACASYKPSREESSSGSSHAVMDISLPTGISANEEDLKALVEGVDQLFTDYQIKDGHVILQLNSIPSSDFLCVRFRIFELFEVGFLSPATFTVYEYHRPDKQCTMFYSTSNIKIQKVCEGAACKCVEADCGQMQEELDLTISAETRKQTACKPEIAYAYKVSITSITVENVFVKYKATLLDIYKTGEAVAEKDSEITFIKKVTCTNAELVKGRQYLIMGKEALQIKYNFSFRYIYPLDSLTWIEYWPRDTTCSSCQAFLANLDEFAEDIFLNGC
Chain of C5 (P01031 19-673 limits assumed): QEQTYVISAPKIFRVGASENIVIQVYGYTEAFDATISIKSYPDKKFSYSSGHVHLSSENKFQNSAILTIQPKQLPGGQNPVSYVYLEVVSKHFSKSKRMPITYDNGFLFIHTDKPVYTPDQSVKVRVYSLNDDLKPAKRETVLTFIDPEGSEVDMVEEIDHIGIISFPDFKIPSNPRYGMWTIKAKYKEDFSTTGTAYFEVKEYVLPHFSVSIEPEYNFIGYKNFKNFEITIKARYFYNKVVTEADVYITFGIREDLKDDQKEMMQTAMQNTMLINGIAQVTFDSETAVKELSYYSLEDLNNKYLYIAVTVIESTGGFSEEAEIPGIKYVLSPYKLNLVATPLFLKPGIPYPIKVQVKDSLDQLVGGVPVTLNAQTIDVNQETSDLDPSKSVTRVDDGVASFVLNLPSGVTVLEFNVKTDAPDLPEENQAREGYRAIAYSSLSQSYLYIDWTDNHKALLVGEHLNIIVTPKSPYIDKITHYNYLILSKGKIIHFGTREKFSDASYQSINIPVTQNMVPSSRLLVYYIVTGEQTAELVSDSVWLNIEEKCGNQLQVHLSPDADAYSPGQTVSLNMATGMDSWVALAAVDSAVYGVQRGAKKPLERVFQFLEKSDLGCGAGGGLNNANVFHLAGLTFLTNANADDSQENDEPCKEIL

CCC[C@H](NC(=O)[C@@H](NC(=O)[C@@H]1CCCN1C(=O)[C@H](Cc1ccc(O)cc1)NC(=O)[C@H](CCC(=O)O)NC(=O)[C@H](Cc1cccc(CN)c1)NC(=O)[C@H](Cc1ccc(O)cc1)NC(=O)[C@@H](NC(=O)[C@H](CC(=O)O)NC(=O)[C@@H]1CSCc2cccc(c2)CSC[C@H](NC(C)=O)C(=O)N[C@@H](C(C)C)C(=O)N[C@@H](CCC(=O)O)C(=O)N[C@@H](CCCNC(=N)N)C(=O)N[C@@H](Cc2ccccc2)C(=O)N1)C(C)(C)C)C1CCCCC1)C(=O)O [Compound R3181, [mXylyl(1,6)]Ac-C-V-E-R-F-C-D-Tbg-Y-(3-aminomethyl)Phe-E-Y-P-Chg-Nvl]
IC50 ([…] human C5 depleted sera): 1500 nM

CCCCCCCCCCCCCCCC(=O)NCCCC[C@H](NC(=O)C(C)(C)NC(=O)[C@@H]1CCCN1C(=O)[C@H](Cc1ccc(O)cc1)NC(=O)[C@H](CCC(=O)O)NC(=O)[C@H](Cc1c[nH]c2ncccc12)NC(=O)[C@H](Cc1ccc(O)cc1)NC(=O)[C@@H](NC(=O)[C@H](CC(=O)O)N(C)C(=O)[C@@H]1CC(=O)NCCCC[C@H](NC(C)=O)C(=O)N[C@@H](C(C)C)C(=O)N[C@@H](CCC(=O)O)C(=O)N[C@@H](CCCNC(=N)N)C(=O)N[C@@H](Cc2ccccc2)C(=O)N1)C(C)(C)C)C(=O)O [Compound R3200, [cyclo(1,6)]Ac-K-V-E-R-F-D-(N—Me)D-Tbg-Y-azaTrp-E-Y-P-Aib-(Lys-C16)]
IC50 ([…] human C5 depleted sera): 88.5 nM

CCCCCCCCCCCCCCCC(=O)NCCCC[C@H](NC(=O)[C@@H](NC(=O)[C@@H]1CCCN1C(=O)[C@H](Cc1ccc(O)cc1)NC(=O)[C@H](CCC(=O)O)NC(=O)[C@H](Cc1c[nH]c2ncccc12)NC(=O)[C@H](Cc1ccc(O)cc1)NC(=O)[C@@H](NC(=O)[C@H](CC(=O)O)N(C)C(=O)[C@@H]1CSSCCC(=O)N[C@H](C)C(=O)N[C@@H](CCC(=O)O)C(=O)N[C@@H](CCCNC(=N)N)C(=O)N[C@@H](Cc2ccccc2)C(=O)N1)C(C)(C)C)C1CCCCC1)C(=O)O [Compound R3199, [cyclo(1,6)](desamino)C-(D-Ala)-E-R-F-C-(N—Me)D-Tbg-Y-azaTrp-E-Y-P-Chg-(Lys-C16)]
IC50 ([…] human C5 depleted sera): 112 nM

CCC[C@H](NC(=O)[C@@H](NC(=O)[C@@H]1CCCN1C(=O)[C@H](Cc1ccc(O)cc1)NC(=O)[C@H](CCC(=O)O)NC(=O)[C@H](Cc1c[nH]c2ncccc12)NC(=O)[C@H](Cc1ccc(O)cc1)NC(=O)[C@@H](NC(=O)C1(NC(=O)[C@@H]2CSCc3cccc(c3)CSC[C@H](NC(C)=O)C(=O)N[C@@H](C(C)C)C(=O)N[C@@H](CCC(=O)O)C(=O)N[C@@H](CCCNC(=N)N)C(=O)N[C@@H](Cc3ccccc3)C(=O)N2)CCOCC1)C(C)(C)C)C1CCCCC1)C(=O)O [Compound R3186, [mXylyl(1,6)]Ac-C-V-E-R-F-C-(Ac-Pyran)-Tbg-Y-azaTrp-E-Y-P-Chg-Nvl] (Ac-CVERFC[Thp][Tle]Y[Trp(7-aza)]EYP[Chg][Nva]-OH; linker 1-6 via mXylylene; C-terminus assumed)
IC50 ([…] human C5 depleted sera): 18 nM

CCCCCCCCCCCCCCCC(=O)NCCCC[C@H](NC(=O)[C@@H](NC(=O)[C@@H]1CCCN1C(=O)[C@H](Cc1ccc(O)cc1)NC(=O)[C@H](CCC(=O)O)NC(=O)[C@H](Cc1c[nH]c2ccccc12)NC(=O)[C@H](Cc1ccc(O)cc1)NC(=O)[C@@H](NC(=O)[C@H](CC(=O)O)N(C)C(=O)[C@@H]1CC(=O)NCCCC[C@H](NC(C)=O)C(=O)N[C@@H](C(C)C)C(=O)N[C@@H](CCC(=O)O)C(=O)N[C@@H](CCCNC(=N)N)C(=O)N[C@@H](Cc2ccccc2)C(=O)N1)C(C)(C)C)C1CCCCC1)C(=O)O [Compound R3195, [cyclo(1,6)]Ac-K-V-E-R-F-D-(N—Me)D-Tbg-Y-W-E-Y-P-Chg-(Lys-C16)]
IC50 ([…] human C5 depleted sera): 62.5 nM

CCCCCCCCCCCCCCCC(=O)NCCCC[C@H](NC(=O)[C@@H](NC(=O)[C@@H]1CCCN1C(=O)[C@H](Cc1ccc(O)cc1)NC(=O)[C@H](CCC(=O)O)NC(=O)[C@H](Cc1c[nH]c2ncccc12)NC(=O)[C@H](Cc1ccc(O)cc1)NC(=O)[C@@H](NC(=O)[C@H](CC(=O)O)NC(=O)[C@@H]1CSCc2cccc(c2)CSC[C@H](NC(C)=O)C(=O)N[C@@H](C)C(=O)N[C@@H](CCC(=O)O)C(=O)N[C@@H](CCCNC(=N)N)C(=O)N[C@@H](Cc2ccccc2)C(=O)N1)C(C)(C)C)c1ccccc1)C(=O)O [Compound R3189, [mXylyl(1,6)]Ac-C-A-E-R-F-C-D-Tbg-Y-azaTrp-E-Y-P-Phg-(Lys-C16)]
IC50 ([…] human C5 depleted sera): 81.5 nM

CCC[C@H](NC(=O)[C@@H](NC(=O)[C@@H]1CCCN1C(=O)[C@H](Cc1c[nH]c2ccccc12)NC(=O)[C@H](CCC(=O)O)NC(=O)[C@H](Cc1c[nH]c2ncccc12)NC(=O)[C@H](Cc1ccc(O)cc1)NC(=O)[C@@H](NC(=O)[C@H](CC(=O)O)NC(=O)[C@@H]1CSCc2cccc(c2)CSC[C@H](NC(C)=O)C(=O)N[C@@H](C(C)C)C(=O)N[C@@H](CCC(=O)O)C(=O)N[C@@H](CCCNC(=N)N)C(=O)N[C@@H](Cc2ccccc2)C(=O)N1)C(C)(C)C)C1CCCCC1)C(=O)O [Compound R3177, [mXylyl(1,6)]Ac-C-V-E-R-F-C-D-Tbg-Y-azaTrp-E-W-P-Chg-Nvl] (Ac-CVERFCD[Tle]Y[Trp(7-aza)]EWP[Chg][Nva]-OH; linker 1-6 via mXylylene)
IC50 (1.5% human C5 depleted sera): 12 nM

CCC[C@H](NC(=O)[C@@H](NC(=O)[C@@H]1CCCN1C(=O)[C@H](CCc1cccc(Cl)c1)NC(=O)[C@H](CCC(=O)O)NC(=O)[C@H](Cc1c[nH]c2ncccc12)NC(=O)[C@H](Cc1ccc(O)cc1)NC(=O)[C@@H](NC(=O)[C@H](CC(=O)O)NC(=O)[C@@H]1CSCc2cccc(c2)CSC[C@H](NC(C)=O)C(=O)N[C@@H](C(C)C)C(=O)N[C@@H](CCC(=O)O)C(=O)N[C@@H](CCCNC(=N)N)C(=O)N[C@@H](Cc2ccccc2)C(=O)N1)C(C)(C)C)C1CCCCC1)C(=O)O [Compound R3179, [mXylyl(1,6)]Ac-C-V-E-R-F-C-D-Tbg-Y-azaTrp-E-(m-Cl-homo)Phe-P-Chg-Nvl] (Ac-CVERFCD[Tle]Y[Trp(7-aza)]E[hPhe(3-Cl)]P[Chg][Nva]-OH; linker 1-6 via mXylylene; C-terminus assumed)
IC50 ([…] human C5 depleted sera): 83 nM

CCC[C@H](NC(=O)[C@@H](NC(=O)[C@@H]1CCCN1C(=O)[C@H](Cc1ccc2ccccc2c1)NC(=O)[C@H](CCC(=O)O)NC(=O)[C@H](Cc1c[nH]c2ncccc12)NC(=O)[C@H](Cc1ccc(O)cc1)NC(=O)[C@@H](NC(=O)[C@H](CC(=O)O)NC(=O)[C@@H]1CSCc2cccc(c2)CSC[C@H](NC(C)=O)C(=O)N[C@@H](C(C)C)C(=O)N[C@@H](CCC(=O)O)C(=O)N[C@@H](CCCNC(=N)N)C(=O)N[C@@H](Cc2ccccc2)C(=O)N1)C(C)(C)C)C1CCCCC1)C(=O)O [Compound R3180, [mXylyl(1,6)]Ac-C-V-E-R-F-C-D-Tbg-Y-azaTrp-E-2Nal-P-Chg-Nvl] (Ac-CVERFCD[Tle]Y[Trp(7-aza)]E[2Nal]P[Chg][Nva]-OH; linker 1-6 via mXylylene; C-terminus assumed)
IC50 ([…] human C5 depleted sera): 29 nM

CCC[C@H](NC(=O)[C@@H](NC(=O)[C@@H]1CCCN1C(=O)[C@H](Cc1ccc(O)cc1)NC(=O)[C@H](CCC(=O)O)NC(=O)[C@H](Cc1c[nH]c2ncccc12)NC(=O)[C@H](Cc1ccc(O)cc1)NC(=O)[C@@H](NC(=O)C1(NC(=O)[C@@H]2CSCc3cccc(c3)CSC[C@H](NC(C)=O)C(=O)N[C@@H](C(C)C)C(=O)N[C@@H](CCC(=O)O)C(=O)N[C@@H](CCCNC(=N)N)C(=O)N[C@@H](Cc3ccccc3)C(=O)N2)CCCC1)C(C)(C)C)C1CCCCC1)C(=O)O [Compound R3185, [mXylyl(1,6)]Ac-C-V-E-R-F-C-Cle-Tbg-Y-azaTrp-E-Y-P-Chg-Nvl] (Ac-CVERFC[Ac5c][Tle]Y[Trp(7-aza)]EYP[Chg][Nva]-OH; linker 1-6 via mXylylene; C-terminus assumed)
IC50 ([…] human C5 depleted sera): 12.5 nM

CCC[C@H](NC(=O)[C@@H](NC(=O)[C@@H]1CCCN1C(=O)[C@H](Cc1ccc(O)cc1)NC(=O)[C@H](CCC(=O)O)NC(=O)[C@H](Cc1c[nH]c2ncccc12)NC(=O)[C@H](Cc1ccc(O)cc1)NC(=O)[C@@H](NC(=O)[C@H](Cc1nnn[nH]1)NC(=O)[C@@H]1CC(=O)NCCCC[C@H](NC(C)=O)C(=O)N[C@@H](C(C)C)C(=O)N[C@@H](CCC(=O)O)C(=O)N[C@@H](CCCNC(=N)N)C(=O)N[C@@H](Cc2ccccc2)C(=O)N1)C(C)(C)C)C1CCCCC1)C(=O)O [Compound R3174, [cyclo(1,6)]Ac-K-V-E-R-F-D-Asp(T)-Tbg-Y-azaTrp-E-Y-P-Chg-Nvl] (Ac-KVERFD[Ala(1H-tetrazol-5-yl)][Tle]Y[Trp(7-aza)]EYP[Chg][Nva]-OH; lactam 1-6; C-terminus assumed)
IC50 ([…] human C5 depleted sera): 2.3 nM

CC(=O)N[C@H]1CCCCNC(=O)C[C@@H](C(=O)N(C)[C@@H](CC(=O)O)C(=O)N[C@H](C(=O)N[C@@H](Cc2ccc(O)cc2)C(=O)N[C@@H](Cc2c[nH]c3ccccc23)C(=O)N[C@@H](CCC(=O)O)C(=O)N[C@@H](Cc2ccc(O)cc2)C(=O)N2CCC[C@H]2C(=O)N[C@H](C(=O)N[C@@H](CCCCN)C(=O)O)C2CCCCC2)C(C)(C)C)NC(=O)[C@H](Cc2ccccc2)NC(=O)[C@H](CCCNC(=N)N)NC(=O)[C@H](CCC(=O)O)NC(=O)[C@H](C(C)C)NC1=O [Compound R3196, [cyclo(1,6)]Ac-K-V-E-R-F-D-(N—Me)D-Tbg-Y-W-E-Y-P-Chg-K]
IC50 ([…] human C5 depleted sera): 3 nM

CC(=O)N[C@H]1CCCCNC(=O)C[C@@H](C(=O)N(C)[C@@H](CC(=O)O)C(=O)N[C@H](C(=O)N[C@@H](Cc2ccc(O)cc2)C(=O)N[C@@H](Cc2c[nH]c3ccccc23)C(=O)N[C@@H](CCC(=O)O)C(=O)N[C@@H](Cc2ccc(O)cc2)C(=O)N2CCC[C@H]2C(=O)N[C@H](C(=O)N[C@@H](CCCCNC(CC(C)C)=C2C(=O)CC(C)(C)CC2=O)C(=O)O)C2CCCCC2)C(C)(C)C)NC(=O)[C@H](Cc2ccccc2)NC(=O)[C@H](CCCNC(=N)N)NC(=O)[C@H](CCC(=O)O)NC(=O)[C@H](C(C)C)NC1=O [Compound R3197, [cyclo(1,6)]Ac-K-V-E-R-F-D-(N—Me)D-Tbg-Y-W-E-Y-P-Chg-K14]
IC50 ([…] human C5 depleted sera): 4 nM
